In patent publication US7374894B2, “Methods of identifying compounds that modulate IL-4 receptor-mediated IgE synthesis utilizing a chloride intracellular channel 1 protein” (Rigel Pharmaceuticals, Inc., priority 2002, dated 2008):

Assays:
[1] = tested on: IL-4 induced germline ε transcription; test: Re-infection assay in naïve A5T4 reporter cells (BFP-/BFP+ GFP FACS); format: cell-based, human; conditions: for functional category of mutant as compared to wild type peptide, based on reporter ratio: % change calculated after subtracting 1.0 from the individual ratios; for Reporter Ratio: screening in the A5T4 reporter line, DL03 wt and double-residue mutants
Procedure: The ability of peptide DL03 wt (SEQ ID NO:1) to inhibit germline ε transcription was confirmed in naïve cells. Briefly, Phoenix cells were transfected with a retroviral vector encoding a BFP-DL03 wt (SEQ ID NO:1) peptide fusion as described in WO 99/58663 and WO 97/27213. Naïve A5T4 cells were infected with the resultant virions and grown for 3 days. The infected cells were stimulated with IL-4 (60 U/mL) and, after 3 days, the cells were assessed by FACS for BFP and GFP. […] The BFP fluorescence data corresponding to the BFP^+ and BFP^− populations are provided in Panel A. The GFP fluorescence data corresponding to the BFP^+ and BFP^− populations are presented in Panel B. The reporter ratio for this purpose is determined as the geometric mean of the GFP fluorescence of the BFP^− population divided by the geometric mean of the GFP fluorescence of the BFP^+ population as presented in panel C. The reporter ratio for the DL03 in this re-infection assay was 1.50.
A collection of DL03 mutants was generated by replacing double amino acid residues in the sequence of DL03 wt (SEQ ID NO:1) with a different amino acid, typically an alanine, as described in copending application Ser. No. 10/095,659. The functional profiles for the mutants derived from DL03 wt (SEQ ID NO:1) was obtained by constructing and screening for activity in the A5T4 reporter cell line in the manner described above. The activity of each mutant at the germline ε promoter is reflected in the reporter ratio as described above. The reporter ratios were the functional values that were used to develop the functional profiles.
Comparison of the interaction and functional profiles was performed by categorizing the mutants of DL03 based on the functional and interaction assays. Based on the reporter ratio, described in panel C of FIG. 4, each mutant was categorized into one of four functional categories: (1) reduction of function (ROF); (2) loss of function (LOF); (3) increase of function (IOF) or (4) functionally neutral (N) as compared to the activity of the wild type peptide, here DL03 wt (SEQ ID NO:1). As mentioned previously, cells expressing a peptide that inhibits germline ε transcription have reporter ratios of ≧1.1. Cell expressing a loss of function (LOF) mutant have a reporter ratio of […]. […] Functionally neutral mutants have reporter ratios that fall within ±50% of that of the DL03 wt (SEQ ID NO:1). The % increase or decrease in reporter ratio is calculated after subtracting 1.0 from the individual ratios. Using these criteria, peptide DL03IL (SEQ ID NO:2) and peptide DL03LA (SEQ ID NO:4) were designated as ROF mutants, peptide DL03KP (SEQ ID NO:3) was designated as a IOF mutant, peptides DL03TS (SEQ ID NO:5), DL03GA (SEQ ID NO:6), DL03TT (SEQ ID NO:7), DL03AS (SEQ ID NO:8), and DL03MT (SEQ ID NO:9) were designated as neutral. No LOF mutant were found for the DL03 clone.

[2] = molecular target: T1, human CLIC1 (hCLIC1) (Homo sapiens, UniProt O00299); test: β-galactosidase yeast two hybrid (YTH) interaction assay; format: binding
T1 construct: expressed in transfected cells; prey cDNA from the A5T4 reporter line (derived from BJAB B-cells)
Procedure: Potential binding partners for peptide DL03 wt (SEQ ID: 1) were identified in a β-galactosidase yeast two-hybrid (YTH) assay using peptide DL03 wt (SEQ ID: 1) as bait and a cDNA library constructed from the A5T4 reporter cell line as prey. Binding was assessed by β-galactosidase quantification using BetaFluor (Novagen) as a substrate. A negative interaction control (no cDNA fused downstream of the GAL4 activation domain sequence) was also run. A general outline of the YTH assay is illustrated in FIG. 5A. Following clustering, filtering to remove non-specific bait hits (e.g., GFP and BFP), singletons and clusters recognized by 10 or more cDNA baits (based upon historical YTH assays), and prioritization, 22 prey clones were identified as hits.
Potential targets identified in the YTH assay were reconfirmed as generally outlined in FIG. 6. The cDNA clones identified as hits in the YTH assay were purified and rescreened for interaction with the DL03 wt (SEQ ID NO:1) peptide in a YTH assay. The hit clones were also screened in a control assay for interaction with the BFP using a vector (pGBKT7) that contained only the BFP and not the DL03 peptide. At this stage, 12 putative target clones remained.
The interaction of DL03 wt (SEQ ID NO:1) peptide and its mutants with the clones identified as potential targets for the peptide DL03 wt (SEQ ID NO:1) was then quantified in a β-galactosidase YTH assay. The YTH assay was performed in the manner described above. A general outline of this YTH assay is illustrated in FIG. 5B. For each clone tested, an interaction profile was developed by comparing the β-galactosidase activity of each mutant to that of the wild type peptide as described above.
The interaction of these IOF and ROF mutants with different polypeptides encoded by the putative target clones were quantified using the YTH assay described above. Based on the YTH assay, for each putative target, the mutants were categorized into the following four interaction categories: (1) reduction of interaction (ROI); (2) loss of interaction (LOI); (3) increase of interaction (IOI); and (4) interactionally neutral (N), by assessing the binding affinity ratio of the mutant peptide and the wild type peptide (β-gal activity of mutant/wild type) to the putative target. For the YTH interaction assay mutants DL03IL (SEQ ID NO:2), DL03KP (SEQ ID NO:3), DL03LA (SEQ ID NO:4), as well as originally identified peptide DL03 wt (SEQ ID NO:1) were used.
Based on these functional and interaction categorizations, graphic profile representations for each potential target polypeptide were obtained using a weighted categorization process as depicted in FIG. 9. […]

[3] = tested on: germline α promoter; test: TAQMAN assay of endogenous germline α transcription in ST486 cells stimulated with TGF-β; format: cell-based; conditions: TGF-β 40 ng/ml, average of 3 values, p=0.3228
Procedure: The assay was similar to that described in the immediately preceding section, except that ST486 cells (ATCC # CRL-1647) engineered to express the tetracycline-regulated transactivator were infected and the infected cells were stimulated with TGF-β (40 ng/ml; Peprotech). The primers and probe, which are specific for the transcription product driven by the ST486 endogenous α promoter, were as follows (the probe was labeled at the 5′-end with Fam and at the 3′-end with Tamra): […]

| Substance | functional category of mutant as compared to wild type peptide, based on reporter ratio [1] | binding to human CLIC1 in yeast two hybrid interaction assay [2] | Reporter Ratio [1] | endogenous α inhibition ratio [3] |
| --- | --- | --- | --- | --- |
| LYTS I LLHGATTASMTAALA (LYTSILLHGATTASMTAALA; peptide generated from combinatorial library) [DL03KP, double-residue mutant of DL03 wt] | IOF (An increase of function mutant (IOF) shows a >50% increase in reporter ratio) | found to bind | – | – |
| LYTS I LLHGATTASMTKPAR (LYTSILLHGATTASMTKPAR; peptide generated from combinatorial library) [DL03LA, double-residue mutant of DL03 wt] | – | found to bind | – | – |
| LYTS I LLHGATTRAMTKPLA (LYTSILLHGATTRAMTKPLA; Peptide generated from combinatorial library) [DL03AS, double-residue mutant of DL03 wt] | neutral | – | 1.57 | – |
| LYTS I LLHGATTASMTKPLA (LYTSILLHGATTASMTKPLA; peptide generated from a combinatorial library) [DL03wt, peptide 20-mer identified from a retroviral random library, expressed in cells as BFP-peptide fusion] | – | found to bind | – | 0.66 |
| LYTS I LLHGATTASAAKPLA (LYTSILLHGATTASAAKPLA; Peptide generated from combinatorial library) [DL03MT, double-residue mutant of DL03 wt] | neutral | – | 1.30 | – |
| LYTS I LLHARTTASMTKPLA (LYTSILLHARTTASMTKPLA; peptide generated from combinatorial library) [DL03GA, double-residue mutant of DL03 wt] | neutral | – | 1.67 | – |
| LYTS I LLHGAAAASMTKPLA (LYTSILLHGAAAASMTKPLA; peptide generated from combinatorial library) [DL03TT, double-residue mutant of DL03 wt] | neutral | – | 1.43 | – |
| LYAAI LLHGATTASMTKPLA (LYAAILLHGATTASMTKPLA; peptide generated from combinatorial library) [DL03TS, double-residue mutant of DL03 wt] | neutral | – | 1.49 | – |
| LYTSAALHGATTASMTKPLA (Peptide generated by a combinatorial library) [DL03IL, double-residue mutant of DL03 wt] | – | found to bind | – | – |
